According to ChEMBL document CHEMBL1129095, “Design and synthesis of new antagonist peptides for platelet GPIIb/IIIa receptor as anti-thrombotic agents” (Bioorg Med Chem Lett, 1996):
Non-standard residues stand in square brackets, D forms with d. Residues, ends and D or L forms follow the SMILES beside them. *: point of attachment. Butyryl(4-indol-3-yl) = O=C(CCCc1c[nH]c2ccccc12)*; Dihydroorotyl(S) = O=C1C[C@@H](C(=O)*)NC(=O)N1; Phthalimidoacetyl = O=C1c2ccccc2C(=O)N1CC(=O)*; X4 = COc1ccc2[nH]c(C)c(CC(=O)*)c2c1; Hyp = O=C(O)[C@@H]1C[C@@H](O)CN1; X8 = COc1ccc2[nH]cc(CC(=O)*)c2c1; X7 = Cc1[nH]c2ccccc2c1CC(=O)*; pGlu = O=C1CC[C@@H](C(=O)O)N1; X2 = O=C(Cc1c[nH]c2ccccc12)*; NMePro = CN1CCC[C@H]1C(=O)*; X6 = O=C1NC(=O)C(CC(=O)*)N1; X1 = O=C1N[C@H](C(=O)*)CS1; Pip = O=C(O)[C@@H]1CCCCN1; X3 = O=C(c1cc(O)nc(O)n1)*; Thz = O=C(O)[C@@H]1CSCN1; Aze = O=C(O)[C@@H]1CCN1; X5 = O=C([C@@H]1CCCO1)*; PhAc = O=C(Cc1ccccc1)*; Bz = O=C(c1ccccc1)*

tested on: not listed separately; experiment: T1/2 was evaluated in human plasma; assay type: ADME, cell-free

Row | half-life [min] | Molecule
1 | 11 | H-WSRGDW-OH

organism: Homo sapiens; experiment: Inhibition of collagen-induced human platelet aggregation.; assay type: functional

Row | Molecule | IC50 [µM]
2 | N=C(N)NCCC[C@H](NC(=O)[C@H](CO)NC(=O)CCCc1c[nH]c2ccccc12)C(=O)NCC(=O)N[C@@H](CC(=O)O)C(=O)N[C@@H](Cc1c[nH]c2ccccc12)C(=O)O ({Butyryl(4-indol-3-yl)}-SRGDW-OH) | 21
3 | N=C(N)NCCC[C@H](NC(=O)[C@H](CO)NC(=O)CC1NC(=O)NC1=O)C(=O)NCC(=O)N[C@@H](CC(=O)O)C(=O)N[C@@H](Cc1c[nH]c2ccccc12)C(=O)O (some centres not stated) (X6-SRGDW-OH) | 6.9
4 | Ac-SRGDW-NH2 | 74
5 | H-WSRGDW-OH | 6.8
6 | N=C(N)NCCC[C@H](NC(=O)[C@H](CO)NC(=O)c1ccccc1)C(=O)NCC(=O)N[C@@H](CC(=O)O)C(=O)N[C@@H](Cc1c[nH]c2ccccc12)C(N)=O (Bz-SRGDW-NH2) | 34
7 | N=C(N)NCCC[C@H](NC(=O)[C@H](CO)NC(=O)[C@@H]1CSCN1)C(=O)NCC(=O)N[C@@H](CC(=O)O)C(=O)N[C@@H](Cc1c[nH]c2ccccc12)C(=O)O (H-[Thz]SRGDW-OH) | 27
8 | N=C(N)NCCC[C@H](NC(=O)[C@H](CO)NC(=O)CN1C(=O)c2ccccc2C1=O)C(=O)NCC(=O)N[C@@H](CC(=O)O)C(=O)N[C@@H](Cc1c[nH]c2ccccc12)C(N)=O (Phthalimidoacetyl-SRGDW-NH2) | 21
9 | N=C(N)NCCC[C@H](NC(=O)[C@H](CO)NC(=O)c1cc(O)nc(O)n1)C(=O)NCC(=O)N[C@@H](CC(=O)O)C(=O)N[C@@H](Cc1c[nH]c2ccccc12)C(=O)O (X3-SRGDW-OH) | 4
10 | N=C(N)NCCC[C@H](NC(=O)[C@H](CO)NC(=O)[C@H]1CCCN1)C(=O)NCC(=O)N[C@@H](CC(=O)O)C(=O)N[C@@H](Cc1c[nH]c2ccccc12)C(=O)O | 33
11 | N=C(N)NCCC[C@H](NC(=O)[C@H](CO)NC(=O)[C@@H]1CCC(=O)N1)C(=O)NCC(=O)N[C@@H](CC(=O)O)C(=O)N[C@@H](Cc1c[nH]c2ccccc12)C(=O)O ([pGlu]SRGDW-OH) | 5.6
12 | N=C(N)NCCC[C@H](NC(=O)[C@H](CO)NC(=O)[C@@H]1CCN1)C(=O)NCC(=O)N[C@@H](CC(=O)O)C(=O)N[C@@H](Cc1c[nH]c2ccccc12)C(=O)O (H-[Aze]SRGDW-OH) | 1.3
13 | H-FSRGDW-OH | 23
14 | CN1CCC[C@H]1C(=O)N[C@@H](CO)C(=O)N[C@@H](CCCN=C(N)N)C(=O)NCC(=O)N[C@@H](CC(=O)O)C(=O)N[C@@H](Cc1c[nH]c2ccccc12)C(=O)O (NMePro-SRGDW-OH) | 20
15 | Ac-PSRGDW-OH | 50
16 | N=C(N)NCCC[C@H](NC(=O)[C@H](CO)NC(=O)[C@@H]1CCCCN1)C(=O)NCC(=O)N[C@@H](CC(=O)O)C(=O)N[C@@H](Cc1c[nH]c2ccccc12)C(=O)O (H-[Pip]SRGDW-OH) | 11
17 | N=C(N)NCCC[C@H](NC(=O)[C@H](CO)NC(=O)[C@@H]1CCCO1)C(=O)NCC(=O)N[C@@H](CC(=O)O)C(=O)N[C@@H](Cc1c[nH]c2ccccc12)C(=O)O (X5-SRGDW-OH) | 21
18 | COc1ccc2[nH]c(C)c(CC(=O)N[C@@H](CO)C(=O)N[C@@H](CCCN=C(N)N)C(=O)NCC(=O)N[C@@H](CC(=O)O)C(=O)N[C@@H](Cc3c[nH]c4ccccc34)C(=O)O)c2c1 (X4-SRGDW-OH) | 25

Further molecules by falling IC50, results first:

Row | IC50 [µM] | Molecule
19 | 59 | N=C(N)NCCC[C@H](NC(=O)[C@H](CO)NC(=O)Cc1ccccc1)C(=O)NCC(=O)N[C@@H](CC(=O)O)C(=O)N[C@@H](Cc1c[nH]c2ccccc12)C(N)=O (PhAc-SRGDW-NH2)
20 | 50 | NC(=O)[C@H](Cc1ccccc1)NC(=O)[C@H](CC(=O)O)NC(=O)CNC(=O)[C@@H](N)CCCN=C(N)N (H-RGDF-NH2)
21 | 28 | N=C(N)NCCC[C@H](NC(=O)[C@H](CO)NC(=O)[C@@H]1C[C@@H](O)CN1)C(=O)NCC(=O)N[C@@H](CC(=O)O)C(=O)N[C@@H](Cc1c[nH]c2ccccc12)C(=O)O (H-[Hyp]SRGDW-OH)
22 | 22 | Cc1[nH]c2ccccc2c1CC(=O)N[C@@H](CO)C(=O)N[C@@H](CCCN=C(N)N)C(=O)NCC(=O)N[C@@H](CC(=O)O)C(=O)N[C@@H](Cc1c[nH]c2ccccc12)C(=O)O (X7-SRGDW-OH)
23 | 21 | N=C(N)NCCC[C@H](NC(=O)[C@H](CO)NC(=O)Cc1c[nH]c2ccccc12)C(=O)NCC(=O)N[C@@H](CC(=O)O)C(=O)N[C@@H](Cc1c[nH]c2ccccc12)C(=O)O (X2-SRGDW-OH)
24 | 12 | N=C(N)NCCC[C@H](NC(=O)[C@H](CO)NC(=O)[C@@H]1CSC(=O)N1)C(=O)NCC(=O)N[C@@H](CC(=O)O)C(=O)N[C@@H](Cc1c[nH]c2ccccc12)C(=O)O (X1-SRGDW-OH)
25 | 11 | COc1ccc2[nH]cc(CC(=O)N[C@@H](CO)C(=O)N[C@@H](CCCN=C(N)N)C(=O)NCC(=O)N[C@@H](CC(=O)O)C(=O)N[C@@H](Cc3c[nH]c4ccccc34)C(=O)O)c2c1 (X8-SRGDW-OH)
26 | 8.7 | N=C(N)NCCC[C@H](NC(=O)[C@H](CO)NC(=O)[C@@H]1CC(=O)NC(=O)N1)C(=O)NCC(=O)N[C@@H](CC(=O)O)C(=O)N[C@@H](Cc1c[nH]c2ccccc12)C(=O)O ({Dihydroorotyl(S)}-SRGDW-OH)
27 | 0.87 | N=C(N)NCCC[C@H](NC(=O)[C@H](CO)NC(=O)[C@@H]1CCCN1)C(=O)NCC(=O)N[C@@H](CC(=O)O)C(=O)N[C@@H](Cc1c[nH]c2ccccc12)C(=O)O
